Several values for one entry are separate records, joined by “and”; a condition that tells them apart may be missing. Equal values may be shown once. Read-outs that look alike come from different tables or passages of the source.
Experiments:
[1] = breast cancer patients, 30 minutes following subcutaneous injection, n=3, Rodgers 2005, cited from earlier work
AT2 angiotensin receptor = target: T1, AT2 angiotensin receptor (Homo sapiens, UniProt P50052); details: cited from earlier work
T1 sequence (P50052 1-363): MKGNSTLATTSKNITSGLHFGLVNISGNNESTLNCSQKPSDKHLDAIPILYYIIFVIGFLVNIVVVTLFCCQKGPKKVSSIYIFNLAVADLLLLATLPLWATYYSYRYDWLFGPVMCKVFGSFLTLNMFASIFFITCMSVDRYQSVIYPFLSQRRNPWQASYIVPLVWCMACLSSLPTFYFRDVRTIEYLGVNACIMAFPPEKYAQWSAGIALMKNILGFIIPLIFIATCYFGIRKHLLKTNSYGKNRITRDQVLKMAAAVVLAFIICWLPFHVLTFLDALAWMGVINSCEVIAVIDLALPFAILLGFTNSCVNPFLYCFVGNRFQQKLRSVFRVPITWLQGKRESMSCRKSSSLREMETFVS

A549 lung cancer cells = test: Serum-stimulated ^3H-thymidine incorporation, A549; format: cell-based, human; details: A549, 1% FBS, daily addition of 100 nM
Procedure: Unless otherwise stated, cells were grown in DMEM with 10% fetal bovine serum (FBS), 100 μg/mL penicillin and 100 units/mL streptomycin in a humidified 37° C. incubator gassed with 5% CO2 and 95% room air. Cells were grown to subconfluence in either 24-well cluster plates or 100 mm dishes and made quiescent by treatment for 48 h with serum-depleted growth media, prior to the experiments outlined below to measure cell growth (^3H-thymidine incorporation), cell signaling or apoptosis.
Subsequently, the cell monolayer was washed with cold phosphate-buffered saline (PBS; 50 mM NaPO4, 120 mM NaCl, pH=7.2). The adherent cells were precipitated with cold 10% TCA (4° C. for 30 min) and dissolved in 0.2% SDS in 0.1 N NaOH. Incorporated ^3H-thymidine was determined by liquid scintillation spectrometry, as previously described (Freeman, E. J. et al., Hypertension, 1996, 28:104-108). Growth inhibition was defined as a reduction in the amount of ^3H-thymidine incorporation as compared to the mitogen-stimulated controls.

ERK2 = details: SK-LU-1, 10 nM pretreatment; Gallagher et al., 2004; cited from earlier work

## CC[C@H](C)[C@H](NC(=O)[C@H](Cc1ccc(O)cc1)NC(=O)[C@@H](NC(=O)[C@H](CCCNC(=N)N)NC(=O)[C@@H](N)CC(=O)O)C(C)C)C(=O)N[C@@H](Cc1c[nH]cn1)C(=O)N1CCC[C@H]1C(=O)O [Ang-(1-7), Asp-Arg-Val-Tyr-Ile-His-Pro]
[1]; 100 μg/kg/day
  plasma Ang-(1-7): 3209.5 pg/mL and 3.6 nM
[1]
  plasma Ang-(1-7): 49.43 pg/mL and 0.055 nM
AT2 angiotensin receptor; Tallant et al., 1999
  IC50 at the AT2 angiotensin receptor: micromolar range
AT2 angiotensin receptor; literature
  competition at the AT2 receptor: poor competitor
A549 lung cancer cells
  ^3H-thymidine incorporation over time of treatment: progressively reduced
ERK2
  reduction of serum-stimulated phosphorylation of ERK2: 68%

Reference: US20140296143A1, “Angiotensin-(1-7) As A Chemoprevention Agent” (Wake Forest Innovations, priority 2008, published 2014)
